The text below walks through data of patent publication US5677325A, “4-imidazolidinone compound” (Adir Et Compagnie, priority 1995, dated 1997).

The target in one assay is T1, glycine B site (Rattus norvegicus, UniProt P35439).
T1 construct: from tissue; host or cells: rat brain without cerebellum (Wistar males), Triton-treated membranes
Briefly: Binding of [^3 H]-glycine to rat brain membranes (glycine B site). Also noted: species or system rat (Wistar). To be noted: [^3 H]-glycine 10 nM, 20 minutes at 4° C., concentration inhibiting radioligand binding by 50%. How it is done:
(§1) Preparation of the membranes (according to Yoneda et al., J. Neurochem., 55, 1, 237-244, 1990)
(§2) The membranes are prepared and used in the same way for both radioligands. The buffers are prepared with sterile Milli-Q water (Millipore) which is deionized and filtered, just before use, on a nitrocellulose filter (0.45 μm).
(§3) After dissection, the brains from rats (Wistar males, 240-260 g), freed from the cerebellum, are placed in an ice-cold buffer comprising Tris-acetate (1 mM), EGTA (1 mM) and sucrose (320 mM) at pH 7. The brains are milled and then homogenized using a polytron. The suspension is centrifuged for 10 minutes at 1000 g and the supernatent containing the membranes is recovered and recentrifuged for 20 minutes at 35000 g. The pellet, freed from a brown ring, is recovered in a lysis buffer comprising Tris-acetate (1 mM) and EGTA (1 mM) at pH 8. The suspension is then left for 15 minutes at 4° C. and is then centrifuged for 20 minutes at 35000 g. The pellet is recovered in a Tris-acetate (50 mM) buffer at pH 7.4 containing 0.08% Triton and left for 30 minutes at 4° C.
(§4) After two successive centrifugings, the pellet is taken up in Tris-acetate (50 mM) buffer at pH 7.4, divided into aliquots and stored at -80° C. On the day of the experiment, at most 3 weeks after the preparation, the membranes are washed twice with Tris-acetate (50 mM) buffer at pH 7.4.
(§5) Binding experiments (according to Yoneda et al., J. Neurochem., 60, 2, 634-645, 1993)
(§6) The free and bound radioligands are separated on GF/B filters, preimpregnated with PEI (0.1%), using a Brandle filtration device. […] Each filter is rinsed 3 times. The radioactivity is measured using a β-counter (Tricarb 1500, Packard) and expressed in dpm. The curves obtained are analyzed using GraphPad Prism software (non-linear regression).

The test system of a further assay is NMDA channel. Kind of assay: Binding of [^3 H]-MK 801 to rat brain membranes (NMDA channel), stimulation or inhibition. To be noted: for ME (maximum effect) on [^3 H]-MK 801 binding: with respect to a base of 0%, + = stimulation, - = inhibition; for IC50: read-out: IC50, [^3 H]-MK 801 binding, [^3 H]-MK 801 1 nM, 120 minutes at 20° C., antagonists; for activity at glycine B receptor (in words): agonist character. Also noted: species or system rat (Wistar). How it is done:
as §1, §2, §3, §4, §5, §6
The opening of the channel of the NMDA receptor complex is modulated positively by the glycinergic site.

SMILES strings stand for the structures. Values joined by “and” are separate entries in the source; they are usually repeats but may differ in a detail not shown here. Equal entries are not always repeated.

One may read the IC50 as the concentration that inhibits the measured activity by half.

With `N[C@@H]1CCN(O)C1=O` [(+)-HA966], the IC50 on glycine B site amounted to 7.3 µM; at NMDA channel, 6.73 µM. The “ME (maximum effect) on [^3 H]-MK 801 binding” value (“ME (maximum effect)” for short) with NMDA channel (at 100 μM) is -85 ± 7%.

`O=C1CNCN1O` [Example 1, 3-Hydroxy-4-imidazolidinone]: the IC50 on glycine B site turned out to be 6.81 ± 0.545 µM; at glycine B site (listed as compound of the invention) it was 6.8 µM. Also, the “ME (maximum effect)” value in the assay on NMDA channel (at 10 μM) was “+46 ± 3%”; in the assay with NMDA channel (at 10 μM, listed as compound of the invention) it was 46%. Further, the “activity at glycine B receptor (in words)” value in the assay on NMDA channel (qualitative, listed as compound of the invention) is reported as “behaves as an agonist”; with NMDA channel (qualitative, listed as compound of the present invention), “powerful partial agonist”. Also, in the assay with NMDA channel (rat brain membranes, qualitative), the “effect on binding of [^3 H]-MK 801 (in words)” value was “stimulates the binding of [^3 H]-MK 801”.

For the molecule `O=c1[nH]c2cc(Cl)ccc2c(O)c1-c1cccc(Oc2ccccc2)c1` [L 701,324], the IC50 at glycine B site was 0.026 µM and ~0.026 µM; at NMDA channel it was 0.022 µM. Besides, in the assay on NMDA channel (at 1 μM), the “ME (maximum effect)” value is recorded as -91 ± 3%.
